The target in assay [1] is T1, G6sec2 (Homo sapiens, UniProt Q9BYG0).
T1 construct: made in house; host or cells: Sf21 insect cells infected with pVL1393-F2G6sec2-derived recombinant baculovirus
T1 sequence (Q9BYG0 39-378): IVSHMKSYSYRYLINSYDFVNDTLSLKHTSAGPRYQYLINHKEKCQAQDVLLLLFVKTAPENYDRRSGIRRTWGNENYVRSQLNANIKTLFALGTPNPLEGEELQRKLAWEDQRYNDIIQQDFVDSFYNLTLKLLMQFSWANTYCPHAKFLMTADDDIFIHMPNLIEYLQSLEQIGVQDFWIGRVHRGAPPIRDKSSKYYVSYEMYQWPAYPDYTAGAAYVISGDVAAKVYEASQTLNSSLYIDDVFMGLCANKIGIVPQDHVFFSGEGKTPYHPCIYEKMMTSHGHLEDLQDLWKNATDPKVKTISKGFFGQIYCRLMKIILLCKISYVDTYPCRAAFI
Briefly: β1,3-N-acetylglucosaminyltransferase activity of purified FLAG peptide-fused G6 polypeptide, 2-aminobenzamide-labeled oligosaccharide substrates. Particulars: for Relative activity (%) Test 1 G6sec2 / Relative activity (%) Test 2 G6sec2: 2-aminobenzamide-labeled oligosaccharides, LNnT defined as 100%; for Relative activity (%) Test 2 G6sec2: enzyme prepared again. It is filed as biochemical. As to the method: β1,3-N-Acetylglucosaminyltransferase activity of the FLAG peptide-fused G6 polypeptide secreted and produced in insect cells was measured by using the eluate prepared in Example 8(6). The method of Example 7 was used for the activity measurement.
As substrates, oligosaccharides [LNnT, Galβ1-4GlcNAcβ1-3Galβ1-4GlcNAc (hereinafter referred to as “2LN”), Galβ1-4GlcNAcβ1-3Galβ1-4GlcNAcβ1-3Galβ1-4GlcNAc (hereinafter referred to as “3LN”), Galβ1-4GlcNAcβ1-3Galβ1-4GlcNAcβ1-3Galβ1-4GlcNAcβ1-3Galβ1-4GlcNAc (hereinafter referred to as “4LN”), Galβ1-4GlcNAcβ1-3Galβ1-4GlcNAcβ-3Galβ1-4GlcNAcβ1-3Galβ1-4GlcNAcβ1-3Galβ1-4GlcNAc (hereinafter referred to as “5LN”), or Galβ1-4(SO3-6)GlcNAcβ1-3Galβ1-4(SO3-6)GlcNAc (hereinafter referred to as “L2L2”)] were labeled with 2-aminobenzamide and used. 2-Aminobenzamide-labeling of oligosaccharides was carried out using SIGMA 2AB glycan labeling kit (manufactured by Oxford Glycoscience) according to the manufacture's instructions of the kit. LNnT was purchased from Oxford Glycosystems. Other oligosaccharides were obtained from Seikagaku Corporation.
Specifically, the reaction was carried out at 37° C. for 16 hours in 20 μl of an assay solution [150 mmol/l sodium cacodylate (pH 7.2), 50 mmol/l UDP-GlcNAc (manufactured by SIGMA), 0.4% Triton CF-54, 10 mmol/l MnCl2, 5 μmol/12-aminobenzamide-labeled sugar chain substrate, the above purified enzyme solution], and then the product was detected by high performance liquid chromatography (HPLC, details will be described below). As the enzyme, an eluate (1.5 μl) prepared from a culture supernatant of Sf21 infected with the recombinant virus derived from pVL1393-F2G6sec1 or an eluate (1.4 μl) prepared from a culture supernatant of Sf21 infected with the recombinant virus derived from pVL1393-F2G6sec2, prepared in Example 8(6), was used.
The assay solution after completion of the reaction was treated at 100° C. for 5 minutes and then mixed with 50 μl of pure water for HPLC and centrifuged at 10,000×g for 5 minutes to obtain the supernatant. To a tube containing the assay solution, 50 μl of pure water for HPLC was added again, the tube was washed, and suparnatant was obtained by centrifugation at 10,000×g for 5 minutes and was combined with the first supernatant. Next, the supernatant was passed through Ultrafree-MC column (manufactured by Millipore) and a portion thereof (10 μl) was subjected to HPLC. The Ultrafree-MC column was used according to the method described in the manufacture's instructions attached thereto.
The HPLC was carried out using TSK-gel ODS-80Ts Column (4.6×300 mm; manufactured by TOSOH) as a column and 0.02 mol/l ammonium acetate buffer containing 7% methanol (pH 4.0) as an eluant at an elution temperature of 50° C. and a flow rate of 1 ml/min.
The product was detected using a fluorescence spectrophotometer FP-920 (manufactured by JASCO Corporation) (excitation wavelength: 330 nm, radiation wavelength: 420 nm).
Also, a purified enzyme (G6sec2) was again prepared using the method shown in Example 8(6), its substrate specificity was again examined, and the results are also shown in Table 1 (Test 2 in Table 1). The purified enzyme (280 μl) was prepared from 30 ml of a culture supernatant of Sf21 infected with the recombinant virus derived from pVL1393-F2G6sec2, and the assay was carried out using a 4 μl portion thereof. Relative activities when the activity measured using 2-aminobenzamide-labeled LNnT as the substrate is defined as 100% are shown in the table.

The target in assay [2] is T1, G6sec2. Description: β1,3-N-acetylglucosaminyltransferase activity using unlabeled oligosaccharides as substrates (HPAE/PAD). Particulars: unlabeled oligosaccharide 10 mmol/l, 37° C., 16 hours. The class given is biochemical. As to the method: The glycosyltransferase reaction was carried out as follows. The reaction was carried out at 37° C. for 16 hours in 40 μl of an assay solution [50 mmol/l MOPS (pH 7.5), 5 mmol/l UDP-GlcNAc (manufactured by SIGMA), 5 mmol/l MnCl2, 10 mmol/l sugar chain substrate, a purified enzyme solution (G6sec2)]. Next, the mixture was treated at 100° C. for 5 minutes and then centrifuged at 10,000×g for 20 minutes to obtain a supernatant, and a part thereof was analyzed using HPAE/PAD ([…]; manufactured by DIONEX). The method was specifically carried out according to a conventional method [Anal. Biochem., 189, 151-162 (1990), J. Biol. Chem., 273, 433-440 (1998)].
As a purified enzyme (G6sec2), […] of the enzyme obtained in the above (2) was used. As substrates, unlabeled oligosaccharides [lactose (Galβ1-4Glc) and LNnT] were used.
After the reaction on each substrate using an assay solution containing UDP-GlcNAc (saccharide donor) and an assay solution containing no donor, analysis was carried out using HPAE/PAD and peaks appeared only in the assay solution containing UDP-GlcNAc were defined as products. The product was identified using coincidence of its elution time with that of standard sugar chain as the index. As standard sugar chains, GlcNAcβ1-3Galβ1,4Glc and GlcNAcβ1-3Galβ1,4GlcNAcβ1-3Galβ1-4Glc were used.

The values that follow come from patent publication US7629150B2, “Transformed cell harboring DNA or RNA encoding sugar chain synthesizing agent having β1,3-N-acetylglucosaminyltransferase activity” (Kyowa Hakko Kirin Co., Ltd., priority 2000, dated 2009).

As for `CC(=O)N[C@H]1[C@H](O[C@H]2[C@@H](O)[C@@H](CO)O[C@@H](O[C@H]3[C@H](O)[C@@H](O)C(O)O[C@@H]3CO)[C@@H]2O)O[C@H](CO)[C@@H](O[C@@H]2O[C@H](CO)[C@H](O)[C@H](O)[C@H]2O)[C@@H]1O` (mixture of isomers) [LNnT, lacto-N-neotetraose], on G6sec2 [1], the “Relative activity (%) Test 1 G6sec2” value was determined as 100%. Also, at G6sec2 [1], the “Relative activity (%) Test 2 G6sec2” value was 100%. Moreover, the “conversion efficiency of the substrate into the product” value at G6sec2 [1] (G6sec2 eluate 1.4 μl, 2-aminobenzamide-labeled substrate, 37° C., 16 hours (Test 1)) was found to be 11.2%. The “conversion efficiency into the product” value on G6sec2 [1] (G6sec2 prepared again, 4 μl, 2-aminobenzamide-labeled substrate (Test 2)) is listed as 26.2%; at G6sec2 [2] it was 0.48%.
As for `CC(=O)N[C@H]1[C@H](O[C@H]2[C@@H](O)[C@@H](CO)O[C@@H](O[C@H]3[C@H](O)[C@@H](NC(C)=O)C(O)O[C@@H]3CO)[C@@H]2O)O[C@H](CO)[C@@H](O[C@@H]2O[C@H](CO)[C@H](O)[C@H](O)[C@H]2O)[C@@H]1O` (stereo partly shown) [2LN, Galβ1-4GlcNAcβ1-3Galβ1-4GlcNAc], on G6sec2 [1], the “Relative activity (%) Test 1 G6sec2” value came to 86.8% and the “Relative activity (%) Test 2 G6sec2” value was found to be 65.3%.
